Measurements published in patent US6465486B1 (Ortho-McNeil Pharmaceutical, Inc., priority 1999, dated 2002).
Where a name gives a salt, the structure may show the parent alone. Read-outs that look alike come from different tables or passages of the source.

Columns and labels:
[1] = system: mouse acetylcholine bromide-induced abdominal constriction; assay: Mouse Acetylcholine Bromide-Induced Abdominal Constriction Assay (MAIT); format: in vivo; conditions: po; dose not given; acetylcholine bromide 5.5 mg/kg i.p. 30 minutes after drug
Protocol: Mouse Acetylcholine Bromide-Induced Abdominal Constriction Assay (MAIT)
The mouse acetylcholine bromide-induced abdominal constriction assay, as described by Collier et al. in Brit. J. Pharmacol. Chem. Ther., 32: 295-310, 1968, with minor modifications was used to assess analgesic potency of the compounds herein. The test drugs or appropriate vehicle were administered orally (p.o.) and 30 minutes later the animal received an intraperitoneal (i.p.) injection of 5.5 mg/kg acetylcholine bromide (Matheson, Coleman and Bell, East Rutherford, N.J.). The mice were then placed in groups of three into glass bell jars and observed for a ten minute observation period for the occurrence of an abdominal constriction response (defined as a wave of constriction and elongation passing caudally along the abdominal wall, accompanied by a twisting of the trunk and followed by extension of the hind limbs). The percent inhibition of this response to a nociceptive, stimulus (equated to % analgesia) was calculated as follows: The % Inhibition of response, i.e., % analgesia is equal to the difference between the number of control animals responding and the number of drug-treated animals responding times 100 divided by the number of control animals responding.
At least 15 animals were used for control and in each of the drug treated groups. […] The ED50 values and their 95% fiducial limits were determined by a computer assisted probit analysis.

[2] = biological target: T1, Alpha-2D Adrenergic Receptor (Rattus norvegicus, UniProt P22909); assay: Alpha-2D Adrenergic Receptor Binding Assay (3H-para-aminoclonidine, rat cortex membranes); conditions: for % inh of α2D: cells printed with % sign, test concentration not given
T1 construct: aliquots of the synaptic membrane fraction, the ligand ^3H-para-aminoclonidine and test drug; from tissue; host or cells: rat brain cortex, synaptic membrane fraction
T1 sequence (P22909 1-465): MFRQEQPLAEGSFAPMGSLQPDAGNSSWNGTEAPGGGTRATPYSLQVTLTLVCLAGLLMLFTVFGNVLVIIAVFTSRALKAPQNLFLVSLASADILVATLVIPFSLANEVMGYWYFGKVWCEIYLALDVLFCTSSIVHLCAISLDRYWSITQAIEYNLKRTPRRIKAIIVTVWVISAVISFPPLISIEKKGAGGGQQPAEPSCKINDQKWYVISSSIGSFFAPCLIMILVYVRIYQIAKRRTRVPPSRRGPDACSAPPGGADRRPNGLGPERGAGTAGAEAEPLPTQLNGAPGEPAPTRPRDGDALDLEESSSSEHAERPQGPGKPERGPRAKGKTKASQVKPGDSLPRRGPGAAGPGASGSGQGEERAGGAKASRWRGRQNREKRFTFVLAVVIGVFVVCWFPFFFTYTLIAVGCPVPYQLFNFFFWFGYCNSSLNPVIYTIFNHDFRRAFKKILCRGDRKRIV
Protocol: Alpha-2D Adrenergic Receptor Binding Assay
Male, Wistar rats (150-250 g, VAF, Charles River, Kingston, N.Y.) are sacrificed by cervical dislocation and their brains removed and placed immediately in ice cold HEPES buffered sucrose. The cortex is dissected out and homogenized in 20 volumes of HEPES sucrose in a Teflon™-glass homogenizer. The homogenate is centrifuged at 1000 g for 10 min, and the resulting supernatant centrifuged at 42,000 g for 10 min. The resulting pellet is resuspended in 30 volumes of 3 mM potassium phosphate buffer, pH 7.5, preincubated at 25° C. for 30 min and recentrifuged. The resulting pellet is resuspended as described above and used for the receptor binding assay. […] The incubation is terminated by filtration of the tube contents through glass fiber filter sheets. Following washing of the sheets with 10 mM HEPES buffer, the adhering radioactivity is quantified by liquid scintillation spectrometry.
Binding of the test drug to the receptor is determined by comparing the amount of radiolabeled ligand bound in control tubes without drug to the amount of radiolabeled ligand bound in the presence of the drug. Dose-response data are analyzed with LIGAND, a nonlinear curve fitting program designed specifically for the analysis of ligand binding data.

SMILES	% inh of MAIT [1] [po %]	Ki ([2]; rat cortex synaptic membranes, ligand 3H-para-aminoclonidine, cells without % sign, read-out: α2D Ki) [nM]	Ki [2] [nM]	melting point [°C]	% inh of α2D [2] [%]
c1ccc(C(c2ccccn2)c2c[nH]cn2)cc1 (stereo not shown) [Cp-7, 4-[(Pyridin-2-yl)methylphenyl]-1H-imidazole]	13	1000	–	–	–
c1ccc2nc(Cc3c[nH]cn3)ccc2c1 [Cp-9]	20	–	1.6	–	–
Cc1ncccc1CCc1c[nH]cn1.Cl.Cl [Cp-2, 4-[(2-Methylpyrid-3-yl)ethyl]-1H-imidazole Dihydrochloride]	–	–	–	258.5 to 263	–
Brc1cncc(Cc2c[nH]cn2)c1.O=C(O)/C=C/C(=O)O [Cp-4, 4-[(5-Bromopyridin-3-yl)methyl]-1H-imidazole Fumarate]	54	–	–	139 to 145	83
CC(c1cncc(Br)c1)c1c[nH]cn1 (stereo not shown) [Fumarate]	53	–	–	–	–
Cl.c1ccc(Cc2c[nH]cn2)nc1 [Cp-6, 4-[(Pyridin-2-yl)methyl]-1H-imidazole Hydrochloride]	40	–	–	197 to 200	83
Cl.Cl.c1cncc(Cc2c[nH]cn2)c1 [Cp-3]	47	–	–	–	89
Brc1cncc(CCc2c[nH]cn2)c1.O=C(O)/C=C/C(=O)O [Cp-5, 4-[(5-Bromopyridin-3-yl)ethyl]-1H-imidazole Fumarate]	–	–	–	156 to 158	–
Cc1ncccc1Cc1c[nH]cn1.Cl.Cl [Cp-1, 4-[(2-Methylpyrid-3-yl)methyl]-1H-imidazole Dihydrochloride]	93	–	7.1	236 to 237.5	–
Cc1ncccc1C(C)c1c[nH]cn1 (stereo not shown) [Dihydrochloride]	33	–	–	–	–
